What was measured:
[1] = test system: E. coli; test: Synergy study (checkerboard titration) with hen white lysozyme; assay type: cell-based
[2] = test system: Salmonella typhi; test: as above; assay type: cell-based
[3] = test system: P. aeruginosa (H103); test: as above; assay type: cell-based
[4] = test system: P. aeruginosa; test: MIC, broth microdilution assay in polypropylene microtiter trays; assay type: cell-based; conditions: average of three separate experiments
In short: (§1)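 Serially titrated peptides incubated with bacteria; growth tracked as OD; lowest level without OD change over the given period reported as MIC.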

[5] = test system: E. coli; test: as above; assay type: cell-based; conditions: average of three separate experiments
In short: as §1

[6] = test system: S. aureus; test: as above; assay type: cell-based; conditions: average of three separate experiments
In short: as §1

[7] = test system: S. aureus K147; test: as above; assay type: cell-based; conditions: average of three separate experiments
In short: as §1

[8] = test system: mutant (Nal B, H744) of P. aeruginosa; test: microbe, parasite or virus in culture; assay type: cell-based
In short: (§2)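 Checkerboard titration in Mueller Hinton broth, peptide against carbenicillin or ciprofloxacin, inoculum 10 μl of 10^−4 dilution of overnight culture, 18-24 h at 37 °C. Combination MIC is the lowest concentration reducing growth >50%. FIC index = A/MIC A + B/MIC B, with ≤~0.5 synergy, 1.0 additivity, >1.0 antagonism.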

[9] = test system: β-lactamase derepressed mutant (H547) of P. aeruginosa; test: microbe, parasite or virus in culture; assay type: cell-based; conditions: P. aeruginosa H547
In short: as §2

[10] = test system: Pseudomonas aeruginosa strain M2; test: Protection of neutropenic CD-1 mice challenged with Pseudomonas aeruginosa; assay type: in vivo; design: Survival post bacterial challenge, surviving mice: reference not given here; conditions: for Survival (%) post bacterial challenge: PBS 8
In short: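 Neutropenia induced by three i.p. cyclophosphamide doses ([…], alternate days); mice then infected i.p. with 200-300 organisms/mouse. Peptides (200 µg/mouse = 8 mg/kg) in buffered citrate given i.p. at 30 min (single) or 30 min and 16 hrs (double) post-challenge; PBS control; mean of 2 experiments.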

[11] = cationic peptide concentration, combined with lysozyme
[12] = lysozyme concentration, combined with the peptide

## CC[C@H](C)[C@H](NC(=O)CNC(=O)[C@@H](NC(=O)[C@H](CCCCN)NC(=O)[C@H](CCCCN)NC(=O)[C@H](Cc1ccccc1)NC(=O)[C@H](CC(C)C)NC(=O)[C@H](CCCCN)NC(=O)[C@H](Cc1c[nH]c2ccccc12)NC(=O)[C@H](CC(C)C)NC(=O)[C@@H](N)CCCCN)[C@@H](C)CC)C(=O)NCC(=O)N[C@@H](C)C(=O)N[C@H](C(=O)N[C@@H](CC(C)C)C(=O)N[C@@H](CCCCN)C(=O)N[C@H](C(=O)N[C@@H](CC(C)C)C(=O)N[C@@H](CCCCN)C(=O)N[C@H](C(=O)N[C@@H](CC(C)C)C(=O)N[C@H](C(=O)N[C@H](C(=O)NCC(=O)N[C@@H](CC(C)C)C(=O)N1CCC[C@H]1C(=O)N[C@@H](C)C(=O)N[C@@H](CC(C)C)C(=O)N[C@@H](CCCCN)C(=O)N[C@@H](CC(C)C)C(=O)N[C@H](C(=O)N[C@@H](CC(C)C)C(=O)N[C@@H](CCCCN)C(=O)O)[C@@H](C)O)[C@@H](C)O)[C@@H](C)O)C(C)C)C(C)C)C(C)C [CM7]
[1]
  FIC for combination of cationic peptide and lysozyme: 0.31
[1]; [11]
  Lowest [CP] showing synergy: 0.65 µg/mL
[1]; [12]
  Lowest [Lyso] showing synergy: 7.8 µg/mL
[2]
  FIC for combination of cationic peptide and lysozyme: 0.52
[2]; [11]
  Lowest [CP] showing synergy: 2.61 µg/mL
[2]; [12]
  Lowest [Lyso] showing synergy: 15.6 µg/mL
[3]
  FIC for combination of cationic peptide and lysozyme: 0.75
[3]; [11]
  Lowest [CP] showing synergy: 2.6 µg/mL
[3]; [12]
  Lowest [Lyso] showing synergy: 250 µg/mL
[4]
  MIC P. aeruginosa: 8 µg/mL
[5]
  MIC E. coli: 2 µg/mL
[6]
  MIC S. aureus: 8 µg/mL
[7]
  MIC S. aureus K147: 4 to 8 µg/mL
[8]; ciprofloxacin with peptide at concentration (A), Nal B, H744
  (B) MIC of Cipro when combined with peptide: .125 µg/mL
[8]; peptide + ciprofloxacin, Nal B, H744
  FIC index: .63
[8]; peptide alone, P. aeruginosa mutant Nal B, H744 (Table 5)
  MIC A MIC of Peptides: 16 µg/mL
[8]; peptide concentration in combination with ciprofloxacin, Nal B, H744
  (A) Peptide doses together with Cipro: 2 µg/mL
[9]; Carbenicillin with peptide at concentration (A)
  (B) MIC of Carb when combined with peptide: 64 µg/mL
[9]; peptide alone
  MIC A MIC of Peptides: 32 µg/mL
[9]; peptide concentration in combination with Carbenicillin
  (A) Peptide doses together with Carb: 2 µg/mL
[10]; double dose (200 μg per mouse i.p. at 30 min and 16 hrs), 16 hr
  Survival post bacterial challenge, surviving mice: 12
[10]; double dose, 24 hr
  Survival post bacterial challenge, surviving mice: 12
[10]; double dose, 41 hr
  Survival post bacterial challenge, surviving mice: 8
[10]; double dose, 48 hr
  Survival post bacterial challenge, surviving mice: 6
[10]; double dose, 64 hr
  Survival post bacterial challenge, surviving mice: 5
  Survival (%) post bacterial challenge: 41%
[10]; double dose, 72 hr
  Survival post bacterial challenge, surviving mice: 5
  Survival (%) post bacterial challenge: 41%
[10]; double dose, 96 hr
  Survival post bacterial challenge, surviving mice: 5
  Survival (%) post bacterial challenge: 41%
[10]; single dose (200 μg per mouse i.p. at 30 min), 16 hr
  Survival post bacterial challenge, surviving mice: 15
[10]; single dose, 24 hr
  Survival post bacterial challenge, surviving mice: 15
[10]; single dose, 41 hr
  Survival post bacterial challenge, surviving mice: 13
[10]; single dose, 48 hr
  Survival post bacterial challenge, surviving mice: 13
[10]; single dose, 64 hr
  Survival post bacterial challenge, surviving mice: 12
  Survival (%) post bacterial challenge: 80%
[10]; single dose, 72 hr
  Survival post bacterial challenge, surviving mice: 11
  Survival (%) post bacterial challenge: 73%
[10]; single dose, 96 hr
  Survival post bacterial challenge, surviving mice: 11
  Survival (%) post bacterial challenge: 73%

— patent publication US6818407B2, “Anti-endotoxic antimicrobial cationic peptides and methods of use therfor” (priority 1998, dated 2004)
